Data: ChEMBL document CHEMBL1201862, “PubChem BioAssay data set” (2004)
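Results reflect a 48-hour exposure of cells in 96-well plates to compound at five concentrations. GI50: concentration for 50% inhibition of growth.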 Activity calls are given as the source filed them. No stated cut-off is given here; in the data, active = GI50 up to about 1.1 µM and inactive = higher.

Experiments:
Test in all cases: NCI tumour cell line growth inhibition, 48 h
OVCAR-4 = system: OVCAR-4
NCI/ADR-RES = system: NCI/ADR-RES
T47D = system: T47D
COLO 205 = system: COLO 205
HT-29 = system: HT-29
ACHN = system: ACHN
HOP-62 = system: HOP-62
PC-3 = system: PC-3
UO-31 = system: UO-31
M14 = system: M14
A549 = system: A549
SK-MEL-28 = system: SK-MEL-28
NCI-H226 = system: NCI-H226
UACC-257 = system: UACC-257
SNB-19 = system: SNB-19
SF-295 = system: SF-295
HCC 2998 = system: HCC 2998
786-0 = system: 786-0
MOLT-4 = system: MOLT-4
SK-MEL-5 = system: SK-MEL-5

Row | Structure (SMILES) | GI50 (OVCAR-4) | GI50 (NCI/ADR-RES) | GI50 (T47D) | GI50 (COLO 205) | GI50 (HT-29) | GI50 (ACHN) | GI50 (HOP-62) | GI50 (PC-3) | GI50 (UO-31) | GI50 (M14) | GI50 (A549) | GI50 (SK-MEL-28) | GI50 (NCI-H226) | GI50 (UACC-257) | GI50 (SNB-19) | GI50 (SF-295) | GI50 (HCC 2998) | GI50 (786-0) | GI50 (MOLT-4) | GI50 (SK-MEL-5)
1 | CC(C)(C)C(=O)OCOP(=O)(OCOC(=O)C(C)(C)C)OCC1OC(n2ccc(=O)[nH]c2=O)C(N=[N+]=[N-])C1O (stereo not given) | 3.13 µM (inactive) | 7.74 µM (inactive) | 1.48 µM (inactive) | 3.14 µM (inactive) | 3.44 µM (inactive) | 4.2 µM (inactive) | 2.37 µM (inactive) | 3.81 µM (inactive) | 1.62 µM (inactive) | 3 µM (inactive) | 2.99 µM (inactive) | 11.6 µM (inactive) | 9.29 µM (inactive) | 5.37 µM (inactive) | 12.9 µM (inactive) | 12.7 µM (inactive) | 2.75 µM (inactive) | 2.46 µM (inactive) | 4.01 µM (inactive) | 4.9 µM (inactive)
2 | C/C(=N/NC(=S)Nc1ccc(Cl)cc1)c1cccc(/C(C)=N\NC(=S)Nc2ccc(Cl)cc2)n1 | 13.4 µM (inactive) | 2.59 µM (inactive) | 30.7 µM (inactive) | 3.56 µM (inactive) | 10.2 µM (inactive) | 2.54 µM (inactive) | 2.76 µM (inactive) | 3.47 µM (inactive) | 5.92 µM (inactive) | 1.79 µM (inactive) | 5.55 µM (inactive) | 23.2 µM (inactive) | 3.54 µM (inactive) | 4.5 µM (inactive) | 9.73 µM (inactive) | 3.34 µM (inactive) | 12.2 µM (inactive) | 0.594 µM (active) | 2.34 µM (inactive) | 1.86 µM (inactive)
3 | CC(C)c1cc(=O)[nH]c2cc(N)ccc12 | > 100 µM (inactive) | > 100 µM (inactive) | > 100 µM (inactive) | > 100 µM (inactive) | > 100 µM (inactive) | > 100 µM (inactive) | > 100 µM (inactive) | > 100 µM (inactive) | > 100 µM (inactive) | > 100 µM (inactive) | > 100 µM (inactive) | > 100 µM (inactive) | > 100 µM (inactive) | > 100 µM (inactive) | > 100 µM (inactive) | > 100 µM (inactive) | > 100 µM (inactive) | > 100 µM (inactive) | > 100 µM (inactive) | > 100 µM (inactive)
4 | CCOC(=O)c1ccc2nc3n(c2c1)C(c1c(F)cccc1F)SC3 (stereo not given) | > 100 µM (inactive) | > 100 µM (inactive) | > 100 µM (inactive) | > 100 µM (inactive) | > 100 µM (inactive) | 84.1 µM (inactive) | 57.3 µM (inactive) | 72.1 µM (inactive) | > 100 µM (inactive) | > 100 µM (inactive) | 79.1 µM (inactive) | > 100 µM (inactive) | 15.1 µM (inactive) | > 100 µM (inactive) | 95.3 µM (inactive) | > 100 µM (inactive) | > 100 µM (inactive) | 55.7 µM (inactive) | > 100 µM (inactive) | > 100 µM (inactive)
5 | CCOC(=O)c1nc2c(nc1C(=O)OCC)C(=O)c1ccccc1C2=O | 0.637 µM (active) | 1.17 µM (inactive) | 3.85 µM (inactive) | 1.82 µM (inactive) | 2.5 µM (inactive) | 0.757 µM (active) | 0.618 µM (active) | 2.9 µM (inactive) | 0.333 µM (active) | 0.585 µM (active) | 0.594 µM (active) | 1.03 µM (active) | 0.569 µM (active) | 0.431 µM (active) | 0.446 µM (active) | 0.359 µM (active) | 1.35 µM (inactive) | 0.839 µM (active) | 1.71 µM (inactive) | 0.407 µM (active)
6 | C=CCON(C(=O)OC(C)(C)C)C(C)(C)C | 1.55 µM (inactive) | > 100 µM (inactive) | > 100 µM (inactive) | > 100 µM (inactive) | > 100 µM (inactive) | > 100 µM (inactive) | > 100 µM (inactive) | > 100 µM (inactive) | > 100 µM (inactive) | > 100 µM (inactive) | > 100 µM (inactive) | > 100 µM (inactive) | > 100 µM (inactive) | > 100 µM (inactive) | > 100 µM (inactive) | > 100 µM (inactive) | > 100 µM (inactive) | > 100 µM (inactive) | > 100 µM (inactive) | > 100 µM (inactive)
7 | C=CC1CCC[N+]1(CC(=O)OCC)Cc1ccccc1 (stereo not given) | > 100 µM (inactive) | > 100 µM (inactive) | > 100 µM (inactive) | > 100 µM (inactive) | > 100 µM (inactive) | > 100 µM (inactive) | > 100 µM (inactive) | > 100 µM (inactive) | > 100 µM (inactive) | > 100 µM (inactive) | > 100 µM (inactive) | > 100 µM (inactive) | > 100 µM (inactive) | > 100 µM (inactive) | > 100 µM (inactive) | > 100 µM (inactive) | > 100 µM (inactive) | > 100 µM (inactive) | > 100 µM (inactive) | > 100 µM (inactive)
8 | CCOC1OCCCC1Br (stereo not given) | > 100 µM (inactive) | > 100 µM (inactive) | > 100 µM (inactive) | > 100 µM (inactive) | > 100 µM (inactive) | > 100 µM (inactive) | > 100 µM (inactive) | > 100 µM (inactive) | > 100 µM (inactive) | > 100 µM (inactive) | > 100 µM (inactive) | > 100 µM (inactive) | > 100 µM (inactive) | > 100 µM (inactive) | > 100 µM (inactive) | > 100 µM (inactive) | > 100 µM (inactive) | > 100 µM (inactive) | > 100 µM (inactive) | > 100 µM (inactive)
9 | CCCCCCCCC(=O)NCCN(CCN)C(=O)CCCCCCCC | 8.17 µM (inactive) | 13.1 µM (inactive) | 14.9 µM (inactive) | 3.29 µM (inactive) | 3.3 µM (inactive) | 8.67 µM (inactive) | 15.3 µM (inactive) | 10.7 µM (inactive) | 12.7 µM (inactive) | 8.81 µM (inactive) | 13.1 µM (inactive) | 14.9 µM (inactive) | 18.5 µM (inactive) | 18.4 µM (inactive) | 8.55 µM (inactive) | 4.99 µM (inactive) | 6.14 µM (inactive) | 4.9 µM (inactive) | 3.78 µM (inactive) | 10.3 µM (inactive)
10 | Cc1cc(O)c(C(C)C)cc1C1(c2cc(C(C)C)c(O)cc2C)OC(=O)c2ccccc21 | 2.12 µM (inactive) | 2.9 µM (inactive) | 1.85 µM (inactive) | 1.93 µM (inactive) | 2.39 µM (inactive) | 2.62 µM (inactive) | 2.76 µM (inactive) | 2.26 µM (inactive) | 2.56 µM (inactive) | 1.82 µM (inactive) | 3.05 µM (inactive) | 1.6 µM (inactive) | 2.48 µM (inactive) | 1.85 µM (inactive) | 3.15 µM (inactive) | 1.78 µM (inactive) | 1.73 µM (inactive) | 2.4 µM (inactive) | 1.34 µM (inactive) | 1.6 µM (inactive)
11 | COC(=O)NC1(NC(=O)OC)NC(=O)c2ccccc2N1 | > 100 µM (inactive) | > 100 µM (inactive) | > 100 µM (inactive) | > 100 µM (inactive) | > 100 µM (inactive) | > 100 µM (inactive) | > 100 µM (inactive) | > 100 µM (inactive) | > 100 µM (inactive) | > 100 µM (inactive) | < 0.01 µM (active) | > 100 µM (inactive) | > 100 µM (inactive) | > 100 µM (inactive) | > 100 µM (inactive) | 36.5 µM (inactive) | > 100 µM (inactive) | > 100 µM (inactive) | > 100 µM (inactive) | > 100 µM (inactive)
12 | O=C1OC([C@H](O)c2cccnc2)c2ccccc21 (stereo not given in full) | > 10 µM (inactive) | > 10 µM (inactive) | > 10 µM (inactive) | > 10 µM (inactive) | > 10 µM (inactive) | > 10 µM (inactive) | > 10 µM (inactive) | > 10 µM (inactive) | > 10 µM (inactive) | > 10 µM (inactive) | > 10 µM (inactive) | > 10 µM (inactive) | > 10 µM (inactive) | > 10 µM (inactive) | > 10 µM (inactive) | > 10 µM (inactive) | > 10 µM (inactive) | > 10 µM (inactive) | > 10 µM (inactive) | > 10 µM (inactive)
